Data from ChEMBL document CHEMBL2385072, “Development of oleanane-type triterpenes as a new class of HCV entry inhibitors” (J Med Chem, 2013).

Experiments:
Conditions in all cases: HEK-293T
Hepatitis C virus [1] = test: Antiviral activity against pseudo HCV infected in human 293T cells assessed as inhibition of HCV pseudo particles entry at 10 uM after 72 hrs by luciferase reporter gene assay; type: functional, Hepacivirus hominis
Hepatitis C virus [2] = test: Antiviral activity against pseudo HCV infected in human 293T cells assessed as inhibition of HCV pseudo particles entry at 5 uM after 72 hrs by luciferase reporter gene assay; type: functional, Hepacivirus hominis
[3] = tested on: Vesicular stomatitis virus; test: Antiviral activity against pseudo VSV infected in human 293T cells assessed as inhibition of vesicular stromatis G protein pseudo particles entry at 5 uM after 72 hrs by luciferase reporter gene assay; type: functional
Hepatitis C virus [4] = test: Antiviral activity against pseudo HCV infected in human 293T cells assessed as inhibition of HCV pseudo particles entry at 1 uM after 72 hrs by luciferase reporter gene assay; type: functional, Hepacivirus hominis
[5] = tested on: Vesicular stomatitis virus; test: Antiviral activity against pseudo VSV infected in human 293T cells assessed as inhibition of vesicular stromatis G protein pseudo particles entry at 1 uM after 72 hrs by luciferase reporter gene assay; type: functional

| SMILES | inhibition at 10 µM (Hepatitis C virus [1]) [%] | inhibition at 5 µM (Hepatitis C virus [2]) [%] | inhibition at 5 µM [3] [%] | inhibition at 1 µM (Hepatitis C virus [4]) [%] | inhibition at 1 µM [5] [%] |
| --- | --- | --- | --- | --- | --- |
| CC1(C)CC[C@]2(C(=O)O)[C@H](O)C[C@]3(C)C(=CC[C@@H]4[C@@]5(C)CC[C@H](O)[C@@](C)(CO)[C@@H]5CC[C@]43C)[C@@H]2C1 | 20 | – | – | – | – |
| CC1(C)CC[C@]2(C(=O)O)CC[C@]3(C)C(=C[C@@H](O)[C@@H]4[C@@]5(C)CC[C@H](O)C(C)(C)[C@@H]5CC[C@]43C)[C@@H]2C1 | 50 | – | – | – | – |
| CC1(C)CC[C@]2(C(=O)O)[C@H](O)C[C@]3(C)C(=CC[C@@H]4[C@@]5(C)CC[C@H](O)[C@@](C)(C(=O)O)[C@@H]5CC[C@]43C)[C@@H]2C1 | 0 | – | – | – | – |
| CC1(C)CC[C@]2(C(=O)O)CC[C@]3(C)C(=CC[C@@H]4[C@@]5(C)C[C@@H](O)[C@H](O)[C@@](C)(CO)[C@@H]5CC[C@]43C)[C@@H]2C1 [ARJUNOLIC ACID] | 0 | – | – | – | – |
| CC1(C)CC[C@]2(C(=O)O)CC[C@]3(C)C(=CC[C@@H]4[C@@]5(C)CC[C@H](OC6O[C@H](CO)[C@@H](O)[C@H](O)[C@H]6O)[C@@](C)(CO)[C@@H]5CC[C@]43C)[C@@H]2C1 (some centres not stated) | 0 | – | – | – | – |
| CC1(C)C[C@H]2C3=CC[C@@H]4[C@@]5(C)CC[C@H](O)C(C)(C)[C@@H]5CC[C@@]4(C)[C@]3(C)C[C@@H](O)[C@@]2(C(=O)O)C[C@@H]1O | 15 | – | – | – | – |
| CC1(C)CC[C@]2(C(=O)O)CC[C@]3(C)C(=CC[C@@H]4[C@@]5(C)CCC(=O)C(C)(C)[C@@H]5CC[C@]43C)[C@@H]2C1 [OLEANONIC ACID] | 0 | – | – | – | – |
| CC1(C)CC[C@]2(C(=O)O)[C@H](O)C[C@]3(C)C(=CC[C@@H]4[C@@]5(C)CC[C@H](O)[C@@](C)(C=O)[C@@H]5CC[C@]43C)[C@@H]2C1 [QUILLAIC ACID] | 0 | – | – | – | – |
| CC1(C)CC[C@]2(C(=O)O)CC[C@]3(C)[C@H](C(=O)C[C@@H]4[C@@]5(C)CC[C@H](O)C(C)(C)[C@@H]5CC[C@]43C)[C@@H]2C1 | 50 | – | – | – | – |
| CC1(C(=O)O)CC[C@]2(C)CC[C@]3(C)C(=CC(=O)[C@@H]4[C@@]5(C)CC[C@H](O)C(C)(C)[C@@H]5CC[C@]43C)[C@@H]2C1 (single isomer, unassigned) [ENOXOLONE] | 5 | – | – | – | – |
| CC1(C)CC[C@]2(C(=O)O)[C@H](O)C[C@]3(C)C(=CC[C@@H]4[C@@]5(C)CC[C@H](O)C(C)(C)[C@@H]5[C@H](O)C[C@]43C)[C@@H]2C1 | 5 | – | – | – | – |
| CC1(C)CC[C@]2(C(=O)O)CC[C@]3(C)C(=CC[C@@H]4[C@@]5(C)CC[C@H](O)[C@@](C)(C=O)[C@@H]5CC[C@]43C)[C@@H]2C1 | 0 | – | – | – | – |
| CC1(C)CC[C@]2(C(=O)NCc3cn([C@@H]4O[C@H](CO)[C@@H](O)[C@H](O)[C@H]4O)nn3)[C@H](O)C[C@]3(C)C(=CC[C@@H]4[C@@]5(C)CC[C@H](O)C(C)(C)[C@@H]5CC[C@]43C)[C@@H]2C1 | – | 33.1 | 19.1 | 12.4 | -15.2 |
| CC(=O)O[C@@H]1[C@H](OC(=O)[C@]23CCC(C)(C)C[C@H]2C2=CC[C@@H]4[C@@]5(C)CC[C@H](O)C(C)(C)[C@@H]5CC[C@@]4(C)[C@]2(C)C[C@H]3O)OC[C@@H](OC(C)=O)[C@H]1OC(C)=O | – | 60.6 | 20.1 | 19.3 | 17.1 |
| COC(=O)[C@]12CCC(C)(C)C[C@H]1C1=CC[C@@H]3[C@@]4(C)CC[C@H](OC)C(C)(C)[C@@H]4CC[C@@]3(C)[C@]1(C)C[C@H]2OC | – | 7.9 | 14.2 | 1.7 | 8.5 |
| CC1(C)CC[C@]2(C(=O)O[C@@H]3O[C@H](CO)[C@H](O)[C@H](O)[C@H]3O)[C@H](O)C[C@]3(C)C(=CC[C@@H]4[C@@]5(C)CC[C@H](O)C(C)(C)[C@@H]5CC[C@]43C)[C@@H]2C1 | – | 61.6 | 14.6 | 40.9 | 8.1 |

| SMILES | inhibition at 10 µM (Hepatitis C virus [1]) [%] | inhibition at 5 µM (Hepatitis C virus [2]) [%] | inhibition at 5 µM [3] [%] | inhibition at 1 µM (Hepatitis C virus [4]) [%] | inhibition at 1 µM [5] [%] |
| --- | --- | --- | --- | --- | --- |
| CC1(C)CC[C@]2(C(=O)O)[C@H](OCc3ccccc3)C[C@]3(C)C(=CC[C@@H]4[C@@]5(C)CC[C@H](OCc6ccccc6)C(C)(C)[C@@H]5CC[C@]43C)[C@@H]2C1 | – | 28.2 | 30.6 | 5.5 | 28.8 |
| CC1(C)CC[C@]2(C(=O)NCc3cn([C@@H]4O[C@H](CO)[C@@H](O[C@@H]5O[C@H](CO)[C@H](O)[C@H](O)[C@H]5O)[C@H](O)[C@H]4O)nn3)[C@H](O)C[C@]3(C)C(=CC[C@@H]4[C@@]5(C)CC[C@H](O)C(C)(C)[C@@H]5CC[C@]43C)[C@@H]2C1 | – | 14.6 | 47.3 | 23.1 | 47 |
| COC(=O)[C@]12CCC(C)(C)C[C@H]1C1=CC[C@@H]3[C@@]4(C)CC[C@H](OS(=O)(=O)c5ccc(C)cc5)C(C)(C)[C@@H]4CC[C@@]3(C)[C@]1(C)C[C@H]2O | – | 16.4 | 39.3 | 12.3 | 38.3 |
| CC(=O)OC[C@H]1O[C@@H](O[C@H]2[C@H](OC(C)=O)[C@@H](OC(C)=O)[C@H](n3cc(CNC(=O)[C@]45CCC(C)(C)C[C@H]4C4=CC[C@@H]6[C@@]7(C)CC[C@H](O)C(C)(C)[C@@H]7CC[C@@]6(C)[C@]4(C)C[C@H]5O)nn3)O[C@@H]2COC(C)=O)[C@H](OC(C)=O)[C@@H](OC(C)=O)[C@H]1OC(C)=O | – | 71.8 | 32.1 | 24.6 | 39 |
| COC(=O)[C@]12CCC(C)(C)C[C@H]1[C@H]1C(O)C[C@@H]3[C@@]4(C)CC[C@H](O)C(C)(C)[C@@H]4CC[C@@]3(C)[C@]1(C)C[C@H]2O (some centres not stated) | – | 51 | 43.5 | 22.6 | 35.8 |
| COC(=O)[C@]12CCC(C)(C)C[C@H]1C1=CC[C@@H]3[C@@]4(C)CC[C@H](O)C(C)(C)[C@@H]4CC[C@@]3(C)[C@]1(C)C[C@H]2OC | – | 33.7 | 9.9 | 17.5 | 7.3 |
| CC1(C)CC[C@]2(C(=O)O)[C@H](OS(=O)(=O)O)C[C@]3(C)C(=CC[C@@H]4[C@@]5(C)CC[C@H](O)C(C)(C)[C@@H]5CC[C@]43C)[C@@H]2C1 | – | -2.7 | 34.7 | 1 | 38.5 |
| CC(=O)OC[C@H]1O[C@@H](OC(=O)[C@]23CCC(C)(C)C[C@H]2C2=CC[C@@H]4[C@@]5(C)CC[C@H](O)C(C)(C)[C@@H]5CC[C@@]4(C)[C@]2(C)C[C@H]3O)[C@H](OC(C)=O)[C@@H](OC(C)=O)[C@@H]1OC(C)=O | – | 78.3 | 13.9 | 35.7 | 3.7 |
| CC1(C)CC[C@]2(C(=O)NCc3cn([C@@H]4O[C@H](CO)[C@@H](O[C@H]5O[C@H](CO)[C@@H](O[C@H]6O[C@H](CO)[C@@H](O)[C@H](O)[C@H]6O)[C@H](O)[C@H]5O)[C@H](O)[C@H]4O)nn3)[C@H](O)C[C@]3(C)C(=CC[C@@H]4[C@@]5(C)CC[C@H](O)C(C)(C)[C@@H]5CC[C@]43C)[C@@H]2C1 | – | 39 | 27.4 | 12.8 | 19.7 |
| CC1(C)CC[C@]2(C(=O)O)[C@H](O)C[C@]3(C)C(=CC[C@@H]4[C@@]5(C)[C@H](O)C[C@H](O)C(C)(C)[C@@H]5CC[C@]43C)[C@@H]2C1 | – | 35.2 | 11.8 | 14.3 | 7.9 |
| CC1(C)CC[C@]2(C(=O)O[C@@H]3OC[C@@H](O)[C@H](O)[C@H]3O)[C@H](O)C[C@]3(C)C(=CC[C@@H]4[C@@]5(C)CC[C@H](O)C(C)(C)[C@@H]5CC[C@]43C)[C@@H]2C1 | – | 77.7 | 13 | 33.8 | 36.5 |
| CC1(C)CC[C@]2(C(=O)O)[C@H](O)C[C@]3(C)C(=CC[C@@H]4[C@@]5(C)CC[C@H](OS(=O)(=O)O)C(C)(C)[C@@H]5CC[C@]43C)[C@@H]2C1 | – | 55.2 | 40.4 | 33.4 | 39.1 |
| CC(=O)OC[C@H]1O[C@@H](OC(=O)[C@]23CCC(C)(C)C[C@H]2C2=CC[C@@H]4[C@@]5(C)CC[C@H](O)C(C)(C)[C@@H]5CC[C@@]4(C)[C@]2(C)C[C@H]3O)[C@H](OC(C)=O)[C@@H](OC(C)=O)[C@H]1OC(C)=O | – | 81.6 | 30.7 | 43.4 | 29.3 |
| CC1(C)CC[C@]2(C(=O)O)[C@H](O)C[C@]3(C)C(=CC[C@@H]4[C@@]5(C)CC[C@H](O)C(C)(C)[C@@H]5C[C@H](O)[C@]43C)[C@@H]2C1 | – | 53.5 | 5.6 | 30.4 | 1.6 |
| CC1(C)CC[C@]2(C(=O)NCc3cn([C@@H]4O[C@H](CO)[C@@H](O[C@H]5O[C@H](CO)[C@@H](O)[C@H](O)[C@H]5O)[C@H](O)[C@H]4O)nn3)[C@H](O)C[C@]3(C)C(=CC[C@@H]4[C@@]5(C)CC[C@H](O)C(C)(C)[C@@H]5CC[C@]43C)[C@@H]2C1 | – | 29.7 | 48.1 | 9.3 | 25.8 |
| COC(=O)[C@]12CCC(C)(C)C[C@H]1C1=CC[C@@H]3[C@@]4(C)CC=CC(C)(C)[C@@H]4CC[C@@]3(C)[C@]1(C)C[C@H]2O | – | -8.9 | 9.7 | -3.3 | 7.6 |
